Test results: US7514411B2, “Acylated benzylmaltosides as inhibitors of smooth muscle cell proliferation” (Wyeth, priority 1998, dated 2009)
Where a name gives a salt, the structure may show the parent alone.

System: Porcine Smooth Muscle Cell
Assay: Effects of compounds on cell proliferation using 3H thymidine incorporation
Format: cell-based
Conditions: @ 50 μM
Description: The compounds of this invention are useful as antiproliferative agents. The following procedures show the evaluation of representative compounds of this invention in standard pharmacological test procedure which measured ability of the evaluated compound to inhibit smooth muscle cell proliferation
Effects of Compounds On Cell Proliferation Using ^3H Thymidine Incorporation
Human and porcine smooth muscle cells were tested in early passage (generally passage 3-7) at sub-confluent conditions. Cultures were grown in 16 mm (24 well) multi-well culture dishes in medium 199 supplemented with 10% fetal bovine serum and 2% antibiotic/antimycotic. At sub-confluence, the cells were placed in a defined serum free medium (AIM-V; Gibco) for 24-48 h prior to initiating the experimental protocol.
Compounds were added to each well at 50 fold dilution (20 μL/well) and the plates were incubated for 24-36 h at 37° C. in 5% CO2. Compounds were initially dissolved in 50% ethanol and serially diluted into media. Compounds were routinely evaluated at concentrations from 1 to 100 μM. As a control, grade II porcine intestinal mucosal heparin (sodium salt) was routinely evaluated in all cell preparations at concentrations from 0.1 to 100 μg/mL.
At the completion of the test procedure, plates were placed on ice, washed three times with ice cold phosphate buffered saline (PBS) and incubated in ice cold 10% trichloroacetic acid (TCA) got 30 min to remove acid soluble proteins. Solution was transferred to scintillation vials containing 0.4 N HCl (500 μL/vial to neutralize NaOH) and each well was rinsed two times with water (500 μL) for a total volume of 2 mL/vial.
Data was obtained, in triplicate, for both control and experimental samples. Control (100%) data was obtained from maximally stimulated cells, as the result of growth factor or serum stimulation. Experimental data was obtained from cells maximally stimulated with growth factor or serum and treated with compound. Data are expressed as an IC50 or percent inhibition in Table I below.

Structure (SMILES)	Porcine Smooth Muscle Cell Antiproliferation percent inhibition [% @ 50]
CC(=O)Nc1cc(CSC2OC(CO)C(OC3OC(CO)C(O)C(O)C3O)C(O)C2O)ccc1Cl (stereo not drawn) [Example 19]	28
O=[N+]([O-])c1cc(CS[C@@H]2O[C@H](CO)[C@@H](O[C@H]3O[C@H](CO)[C@@H](O)[C@H](O)[C@H]3O)[C@H](O)[C@H]2O)ccc1Cl [Example 18, (4-Chloro-3-nitro-benzyl)-1-deoxy-1-thio-β-D-maltoside]	25

Same assay, conditions: @ 100 μM

Structure (SMILES)	Porcine Smooth Muscle Cell Antiproliferation percent inhibition [% @ 100]
Cc1ccc(CO[C@@H]2O[C@H](Cn3cnc([N+](=O)[O-])c3)[C@@H](O[C@H]3O[C@H](Cn4cnc([N+](=O)[O-])c4)[C@@H](O)[C@H](O)[C@H]3O)[C@H](O)[C@H]2O)cc1[N+](=O)[O-] [Example 22, 5-{[6,6′-Dideoxy-6,6′-bis(4-nitro-imidazol-1-yl)-β-maltosyl]-oxy-methyl}-2-methyl-1-nitrobenzene]	23

Same assay, conditions: @ 500 μM

Structure (SMILES)	Porcine Smooth Muscle Cell Antiproliferation percent inhibition [% @ 500]
CC(=O)Nc1cc(COC2OC(CO)C(OC3OC(CO)C(O)C(O)C3O)C(O)C2O)ccc1Cl [Example 9, N-[2-Chloro-5-(β-D-maltosyl-oxymethyl)-phenyl]-acetamide]	0

Same assay, conditions: Sus scrofa; @ 50 μM; read-out: Porcine Smooth Muscle Cell Antiproliferation percent inhibition

Structure (SMILES)	inhibition at 50 µM [%]
O=C(Nc1cc(CO[C@@H]2O[C@H](CO)[C@@H](O[C@H]3O[C@H](CO)[C@@H](O)[C@H](O)[C@H]3O)[C@H](O)[C@H]2O)ccc1Cl)c1cccnc1 [Example 16, N-[2-Chloro-5-[[(4-O-α-D-glucopyranosyl-β-D-glucopyranosyl)oxy]methyl]phenyl]-3-pyridinecarboxamide]	18

Same assay, conditions: serum/growth factor stimulated cells, 3H thymidine incorporation, 24-36 h; read-out: Porcine Smooth Muscle Cell Antiproliferation IC50

Structure (SMILES)	IC50 [nM]
CC(=O)O[C@@H]1[C@@H](OC(C)=O)[C@@H](O[C@H]2[C@H](OC(C)=O)[C@@H](OC(C)=O)[C@H](OCc3ccc(C)c([N+](=O)[O-])c3)O[C@@H]2COS(=O)(=O)c2ccc(C)cc2)O[C@H](COS(=O)(=O)c2ccc(C)cc2)[C@H]1OC(C)=O [Example 21, 5-{[2,2′,3,3′,4′-Penta-O-acetyl-6,6′-bis-O-(4-toluenesulfonyl)-β-maltosyl]-oxy-methyl}-2-methyl-1-nitrobenzene]	67400
CC(=O)O[C@@H]1[C@@H](OC(C)=O)[C@@H](O[C@H]2[C@H](OC(C)=O)[C@@H](OC(C)=O)[C@H](OCc3ccc(C)c([N+](=O)[O-])c3)O[C@@H]2Cn2cnc([N+](=O)[O-])c2)O[C@H](Cn2cnc([N+](=O)[O-])c2)[C@H]1OC(C)=O [Example 23, 5-{[2,2′,3,3′,4′-Penta-O-acetyl-6,6′-dideoxy-6,6′-bis(4-nitro-imidazol-1-yl)-β-maltosyl]-oxy-methyl}-2-methyl-1-nitrobenzene]	4700
O=C(Nc1cc(COC2OC(COC(=O)c3ccccc3)C(OC3OC(CO)C(O)C(O)C3O)C(O)C2O)ccc1Cl)c1cccnc1 (stereo not drawn) [Example 17, Benzoic acid 6-{4-chloro-3-[(pyridine-3-carbonyl)-amino]-benzyloxy}-4,5-dihydoxy-3-(3,4,5-trihydroxy-6-hydroxymethyl-tetrahydro-pyran-2-yloxy)-tetrahydro-pyran-2-ylmethyl ester hydrochloride]	245
CC(=O)OC[C@H]1O[C@@H](SCc2ccc(Cl)c(N)c2)[C@H](OC(C)=O)[C@@H](OC(C)=O)[C@@H]1O[C@H]1O[C@H](COC(C)=O)[C@@H](OC(C)=O)[C@H](OC(C)=O)[C@H]1OC(C)=O [Example 6, (3-Amino-4-chloro-benzyl) hepta-O-acetyl-1-thio-β-D-maltoside]	667
CC(=O)Nc1cc(CO[C@@H]2O[C@H](CO[Si](C)(C)C(C)(C)C)[C@@H](O[C@H]3O[C@H](CO[Si](C)(C)C(C)(C)C)[C@@H](O)[C@H](O)[C@H]3O)[C@H](O)[C@H]2O)ccc1Cl [Example 11, N-{2-Chloro-5-[6,6′-di-O-(tert-butyl-dimethyl-silvl)-β-D-maltosyloxy-methyl]-phenyl}-acetamide]	3900
CC(=O)OC[C@H]1O[C@H](O[C@H]2[C@H](OC(C)=O)[C@@H](OC(C)=O)[C@H](OCc3ccc(Cl)c(NC(=O)[C@H](C)NC(=O)OCC4c5ccccc5-c5ccccc54)c3)O[C@@H]2COC(C)=O)[C@H](OC(C)=O)[C@@H](OC(C)=O)[C@@H]1OC(C)=O [Example 3, N-{2-Chloro-5-[(2,2′,3,3′,4′,6,6′)-hepta-O-acetyl-β-D-maltosyl-oxymethyl]-phenyl}-(9H-fluoren-9-ylmethoxycarbonyl)-L-alaninamide]	1710
CC(=O)OC[C@H]1O[C@H](O[C@H]2[C@H](OC(C)=O)[C@@H](OC(C)=O)[C@H](OCc3ccc(Cl)c(NC(=O)c4ccc(C(=O)c5ccccc5)cc4)c3)O[C@@H]2COC(C)=O)[C@H](OC(C)=O)[C@@H](OC(C)=O)[C@@H]1OC(C)=O [Example 4, 4-Benzoyl-N-{2-chloro-5-[(2,2′,3,3′,4′,6,6′-hepta-O-acetyl-β-D-maltosyl)-oxy-methyl]-phenyl}-benzamide]	164
CC(=O)OC[C@H]1O[C@H](O[C@H]2[C@H](OC(C)=O)[C@@H](OC(C)=O)[C@H](OCc3ccc(Cl)c(NC(=O)[C@@H](N)CC(=O)OC(C)(C)C)c3)O[C@@H]2COC(C)=O)[C@H](OC(C)=O)[C@@H](OC(C)=O)[C@@H]1OC(C)=O [Example 2, N-{5-[(Hepta-O-acetyl-β-D-maltosyloxy)-methyl]-2-chloro-phenyl}-L-aspartamide-γ-tert-butyl ester]	4610
CC(=O)Nc1cc(CO[C@@H]2O[C@H](COC(=O)c3ccccc3)[C@@H](O[C@H]3O[C@H](COC(=O)c4ccccc4)[C@@H](O)[C@H](O)[C@H]3O)[C@H](O)[C@H]2O)ccc1Cl [Example 12, N-{2-Chloro-5-[([6,6′-di-O-benzoyl-β-D-maltosyl]oxy)methyl]phenyl}-acetamide]	390 to 2200
O=C(OC[C@H]1O[C@H](O[C@H]2[C@H](O)[C@@H](O)[C@H](OCc3ccc(Cl)c([N+](=O)[O-])c3)O[C@@H]2CO)[C@H](O)[C@@H](O)[C@@H]1O)c1cccnc1 [Example 15, (4-Chloro-3-nitrophenyl)methyl-4-O-[6-O-(3-pyridinylcarbonyl)-α-D-glucopyranosyl]-β-D-glucopyranoside]	73200
CC(=O)Nc1cc(CO[C@@H]2O[C@H](COC(=O)c3ccccc3)[C@@H](O[C@H]3O[C@H](COC(=O)c4ccccc4)[C@@H](OC(C)=O)[C@H](OC(C)=O)[C@H]3OC(C)=O)[C@H](OC(C)=O)[C@H]2OC(C)=O)ccc1Cl [Example 13, N-{2-Chloro-5-[([6,6′-di-O-benzoyl-2,2′,3,3′,4′-penta-acetyl-β-D-maltosyl]oxy)methyl]phenyl}-acetamide]	360
CC(=O)Nc1cc(CO[C@@H]2O[C@H](CO[Si](C)(C)C(C)(C)C)[C@@H](O[C@H]3O[C@H](CO[Si](C)(C)C(C)(C)C)[C@@H](O)[C@H](O)[C@H]3O)[C@H](O)[C@H]2O)ccc1C [Example 10, N-{5-[6,6′-Di-O-(tert-butyl-dimethyl-silyl)-β-D-maltosyloxy-methyl]-2-methyl-phenyl}-acetamide]	6100
CC(=O)Nc1cc(CS[C@@H]2O[C@H](COC(C)=O)[C@@H](O[C@H]3O[C@H](COC(C)=O)[C@@H](OC(C)=O)[C@H](OC(C)=O)[C@H]3OC(C)=O)[C@H](OC(C)=O)[C@H]2OC(C)=O)ccc1Cl [Example 7]	7970
CC(=O)OC[C@H]1O[C@H](O[C@H]2[C@H](OC(C)=O)[C@@H](OC(C)=O)[C@H](OCc3ccc(Cl)c([N+](=O)[O-])c3)O[C@@H]2COC(C)=O)[C@H](OC(C)=O)[C@@H](OC(C)=O)[C@@H]1OC(C)=O [Example 1, 4-Chloro-3-nitro-benzyl-β-D-maltoside heptaacetate]	850
O=C(OC[C@H]1O[C@H](O[C@H]2[C@H](O)[C@@H](O)[C@H](OCc3ccc(Cl)c([N+](=O)[O-])c3)O[C@@H]2COC(=O)c2cccnc2)[C@H](O)[C@@H](O)[C@@H]1O)c1cccnc1 [Example 14, (4-Chloro-3-nitrophenyl)methyl-4-O-[6-O-(3-pyridinylcarbonyl)-α-D-glucopyranosyl]-β-D-glucopyranoside-6-(3-pyridinecarboxylate)]	6560
Cc1ccc(S(=O)(=O)OC[C@H]2O[C@H](O[C@H]3[C@H](O)[C@@H](O)[C@H](OCc4ccc(C)c([N+](=O)[O-])c4)O[C@@H]3COS(=O)(=O)c3ccc(C)cc3)[C@H](O)[C@@H](O)[C@@H]2O)cc1 [Example 20, 5-{[6,6′-Bis-O-(4-toluenesulfonyl)-β-maltosyl]-oxy-methyl}-2-methyl-1-nitrobenzene]	740
CC(=O)OC[C@H]1O[C@@H](SCc2ccc(Cl)c([N+](=O)[O-])c2)[C@H](OC(C)=O)[C@@H](OC(C)=O)[C@@H]1O[C@H]1O[C@H](COC(C)=O)[C@@H](OC(C)=O)[C@H](OC(C)=O)[C@H]1OC(C)=O [Example 5, (4-Chloro-3-nitro-benzyl)-hepta-O-acetyl-1-thio-β-D-maltoside]	1140
CC(=O)OC[C@H]1O[C@H](O[C@H]2[C@H](OC(C)=O)[C@@H](OC(C)=O)[C@H](OCc3ccc(C#N)c([N+](=O)[O-])c3)O[C@@H]2COC(C)=O)[C@H](OC(C)=O)[C@@H](OC(C)=O)[C@@H]1OC(C)=O [Example 8, 5-[(Hepta-O-acetyl-β-D-maltosyl)-oxy-methyl]-2-cyano-1-nitrobenzene]	2050

System: not given
Assay: not given
Conditions: not given

melting point	Structure (SMILES)
> 106 °C (dec.)	O=C(Nc1cc(CO[C@@H]2O[C@H](CO)[C@@H](O[C@H]3O[C@H](CO)[C@@H](O)[C@H](O)[C@H]3O)[C@H](O)[C@H]2O)ccc1Cl)c1cccnc1 [Example 16, N-[2-Chloro-5-[[(4-O-α-D-glucopyranosyl-β-D-glucopyranosyl)oxy]methyl]phenyl]-3-pyridinecarboxamide]
